For one assay, the target named is FASN enzyme (Homo sapiens, UniProt P49327). Put plainly: Enzymatic Assay for FASN Inhibitors. In kind it is biochemical. Summed up: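 40 nM FASN preincubated with compound 60 min at 25° C in HEPES pH 7.3 buffer with 0.04% Triton X-100. Then 20 μM acetyl-CoA, 60 μM malonyl-CoA and 100 μM NADPH added for 90 min, quenched with CPM thiol probe; fluorescence 360/530 nm, IC50 by four-parameter fit.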

Another assay concerns PC3 cells. Put plainly: Cell Proliferation Assays for FASN Inhibitors (PC3 cells, MTT). Type of assay: cell-based. The following applies: Homo sapiens, PC-3, 96 h. How it is done: The effects of the FASN inhibitors on cultured cancer cell proliferation were studies with cell proliferation assays. PC3 cells were maintained at standard culture media (F12K media supplemented with 10% fetal bovine serum, 1×MEM nonessential amino acid and 1× penicillin/streptomycin). 2000-3000 cells/100 μL/well was seeded in a 96-well clear culture plate. The cells were incubated overnight in 5% CO2 at 37° C. for attachment. Cell media were removed and replaced with F12K media containing 10% lipid reduced serum and compound. The final DMSO concentration is 0.1%. The cells were maintained in 5% CO2 at 37° C. for 4 days. The viability of cells was determined by MTT assays. The IC50 of a given compound was calculated by fitting the dose response curve with a four parameter logistic equation.

[1] abbreviates: read-out: IC50 (uM) < 0.5, 10% lipid reduced serum, 4 days, Table 3-1.
Where [2] appears, read: read-out: IC50 (uM) ≥ 0.5, 10% lipid reduced serum, 4 days, Table 3-2.

Read-outs that look alike come from different tables or passages of the source.

Sequence of FASN enzyme (P49327 whole entry): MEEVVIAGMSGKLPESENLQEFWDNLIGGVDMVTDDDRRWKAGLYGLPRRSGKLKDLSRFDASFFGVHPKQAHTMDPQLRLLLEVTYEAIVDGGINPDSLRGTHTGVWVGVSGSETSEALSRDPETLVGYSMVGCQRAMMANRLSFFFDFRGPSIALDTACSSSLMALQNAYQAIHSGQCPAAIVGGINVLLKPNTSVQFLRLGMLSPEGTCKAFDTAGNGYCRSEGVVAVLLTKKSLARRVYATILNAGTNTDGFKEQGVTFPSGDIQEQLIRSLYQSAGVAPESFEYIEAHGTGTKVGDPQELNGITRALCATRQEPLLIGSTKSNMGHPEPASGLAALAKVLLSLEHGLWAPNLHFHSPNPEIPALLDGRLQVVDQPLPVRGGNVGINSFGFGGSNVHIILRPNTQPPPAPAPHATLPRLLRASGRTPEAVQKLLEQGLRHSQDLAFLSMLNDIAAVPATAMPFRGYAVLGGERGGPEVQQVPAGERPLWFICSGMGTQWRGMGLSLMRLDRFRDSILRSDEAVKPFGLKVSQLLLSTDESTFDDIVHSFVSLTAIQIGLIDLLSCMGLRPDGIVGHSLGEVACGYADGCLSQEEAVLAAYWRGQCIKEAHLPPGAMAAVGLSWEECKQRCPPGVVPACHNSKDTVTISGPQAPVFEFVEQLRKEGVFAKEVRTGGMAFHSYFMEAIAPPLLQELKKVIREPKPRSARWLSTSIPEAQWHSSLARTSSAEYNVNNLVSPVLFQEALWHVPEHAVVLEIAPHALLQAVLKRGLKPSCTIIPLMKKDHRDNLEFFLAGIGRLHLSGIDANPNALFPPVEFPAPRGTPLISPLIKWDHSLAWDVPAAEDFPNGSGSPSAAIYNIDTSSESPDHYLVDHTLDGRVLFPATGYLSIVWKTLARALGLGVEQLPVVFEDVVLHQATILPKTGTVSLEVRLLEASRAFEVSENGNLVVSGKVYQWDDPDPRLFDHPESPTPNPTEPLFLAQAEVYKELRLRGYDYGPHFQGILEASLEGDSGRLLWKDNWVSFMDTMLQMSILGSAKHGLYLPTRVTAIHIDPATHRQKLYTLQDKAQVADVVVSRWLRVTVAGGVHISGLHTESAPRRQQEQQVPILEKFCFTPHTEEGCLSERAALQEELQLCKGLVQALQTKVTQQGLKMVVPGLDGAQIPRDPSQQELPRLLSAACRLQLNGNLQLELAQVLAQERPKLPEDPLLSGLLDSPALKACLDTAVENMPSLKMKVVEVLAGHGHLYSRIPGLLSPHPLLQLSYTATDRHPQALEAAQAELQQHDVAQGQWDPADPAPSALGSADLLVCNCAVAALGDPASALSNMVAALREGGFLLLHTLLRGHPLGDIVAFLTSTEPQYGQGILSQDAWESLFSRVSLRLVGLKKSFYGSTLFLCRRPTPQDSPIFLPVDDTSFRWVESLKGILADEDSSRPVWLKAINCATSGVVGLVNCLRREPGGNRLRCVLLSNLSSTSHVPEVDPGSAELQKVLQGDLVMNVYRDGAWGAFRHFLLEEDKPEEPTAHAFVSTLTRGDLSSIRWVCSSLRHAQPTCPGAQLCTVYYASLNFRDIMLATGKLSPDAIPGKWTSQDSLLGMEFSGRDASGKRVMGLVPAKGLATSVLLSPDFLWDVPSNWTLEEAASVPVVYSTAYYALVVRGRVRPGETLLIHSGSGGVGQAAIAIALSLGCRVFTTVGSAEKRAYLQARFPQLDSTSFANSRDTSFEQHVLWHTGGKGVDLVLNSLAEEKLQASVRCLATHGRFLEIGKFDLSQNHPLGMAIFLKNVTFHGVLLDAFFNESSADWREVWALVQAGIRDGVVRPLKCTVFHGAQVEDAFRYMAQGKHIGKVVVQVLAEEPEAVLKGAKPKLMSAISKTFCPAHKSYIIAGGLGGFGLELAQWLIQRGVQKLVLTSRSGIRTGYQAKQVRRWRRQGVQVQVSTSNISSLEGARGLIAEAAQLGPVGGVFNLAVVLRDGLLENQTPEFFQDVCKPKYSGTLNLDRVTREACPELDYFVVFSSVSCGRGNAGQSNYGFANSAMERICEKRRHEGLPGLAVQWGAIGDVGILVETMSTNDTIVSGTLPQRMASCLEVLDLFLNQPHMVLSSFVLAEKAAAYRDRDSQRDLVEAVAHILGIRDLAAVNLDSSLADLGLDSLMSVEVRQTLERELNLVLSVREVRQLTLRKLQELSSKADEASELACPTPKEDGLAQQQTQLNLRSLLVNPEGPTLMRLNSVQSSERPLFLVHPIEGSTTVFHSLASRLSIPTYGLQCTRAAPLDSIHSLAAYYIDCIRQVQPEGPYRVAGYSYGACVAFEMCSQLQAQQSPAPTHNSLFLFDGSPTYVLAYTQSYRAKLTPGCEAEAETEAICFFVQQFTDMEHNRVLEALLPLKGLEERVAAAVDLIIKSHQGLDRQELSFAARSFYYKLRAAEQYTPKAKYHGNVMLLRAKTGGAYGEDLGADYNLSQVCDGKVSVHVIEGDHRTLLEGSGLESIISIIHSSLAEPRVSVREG

Consider `O=C(c1ccc(-c2cnc3ccccc3c2Cl)cc1)N1CCN(C(=O)C2(O)CC2)CC1` [1-[(4-{[4-(4-chloroquinolin-3-yl)phenyl]carbonyl}piperazin-1-yl)carbonyl]cyclopropan-1-ol], for which the figures for the half-inhibitory concentration (IC50) against FASN enzyme and with PC3 cells (setting [1]) were less than 500 nM and less than 0.5 µM, respectively.

For `O=C(c1ccc(-c2nc3cc(Cl)ccc3o2)cc1)N1CCN(C(=O)C2(O)CC2)CC1` [1-[(4-{[4-(5-chloro-1,3-benzoxazol-2-yl)phenyl]carbonyl}piperazin-1-yl)carbonyl]cyclopropan-1-ol], the results for the concentration for half-maximal inhibition (IC50) against FASN enzyme and in the assay on PC3 cells (setting [1]) were less than 500 nM and less than 0.5 µM, respectively.

`O=C(c1ccc(-c2cc(Cl)ccc2F)cc1)N1CCN(C(=O)C2(O)CC2)CC1` [1-[(4-{[4-(5-chloro-2-fluorophenyl)phenyl]carbonyl}piperazin-1-yl)carbonyl]cyclopropan-1-ol]: the IC50 is less than 500 nM against FASN enzyme and less than 0.5 µM in the assay with PC3 cells (setting [1]).

For the compound `O=C(c1ccc(-c2nc3cc(F)ccc3o2)cc1)N1CCN(C(=O)C2(O)CC2)CC1` [1-[(4-{[4-(5-fluoro-1,3-benzoxazol-2-yl)phenyl]carbonyl}piperazin-1-yl)carbonyl]cyclopropan-1-ol], the IC50 against FASN enzyme is less than 500 nM; with PC3 cells (setting [1]) it was less than 0.5 µM.

Regarding `O=C(c1ccc(-c2nc3ccc(Cl)cc3o2)cc1)N1CCN(C(=O)C2(O)CC2)CC1` [1-[(4-{[4-(6-chloro-1,3-benzoxazol-2-yl)phenyl]carbonyl}piperazin-1-yl)carbonyl]cyclopropan-1-ol], the IC50 against FASN enzyme was less than 500 nM; in the assay on PC3 cells (setting [1]), less than 0.5 µM.

Turning to `O=C(c1ccc(-c2nc3ccc(F)cc3o2)cc1)N1CCN(C(=O)C2(O)CC2)CC1` [1-[(4-{[4-(6-fluoro-1,3-benzoxazol-2-yl)phenyl]carbonyl}piperazin-1-yl)carbonyl]cyclopropan-1-ol], the values for the IC50 at FASN enzyme and in the assay with PC3 cells (setting [1]) were less than 500 nM and less than 0.5 µM, respectively.

`COc1ccc2nc(-c3ccc(C(=O)N4CCN(C(=O)C5(O)CC5)CC4)cc3)cc(C)c2c1` [1-[(4-{[4-(6-methoxy-4-methylquinolin-2-yl)phenyl]carbonyl}piperazin-1-yl)carbonyl]cyclopropan-1-ol]: the half-maximal inhibitory concentration (IC50) at FASN enzyme was less than 500 nM; in the assay on PC3 cells (setting [1]) it was less than 0.5 µM.

With `COc1ccc2cc(-c3ccc(C(=O)N4CCN(C(=O)C5(O)CC5)CC4)cc3)ccc2c1` [1-[(4-{[4-(6-methoxynaphthalen-2-yl)phenyl]carbonyl}piperazin-1-yl)carbonyl]cyclopropan-1-ol], the half-inhibitory concentration (IC50) at FASN enzyme is less than 500 nM; with PC3 cells (setting [1]) it was less than 0.5 µM.

With `COc1ccc2nc(-c3ccc(C(=O)N4CCN(C(=O)C5(O)CC5)CC4)cc3)ccc2c1` [1-[(4-{[4-(6-methoxyquinolin-2-yl)phenyl]carbonyl}piperazin-1-yl)carbonyl]cyclopropan-1-ol], the half-maximal inhibitory concentration (IC50) at FASN enzyme is less than 500 nM; with PC3 cells (setting [1]), less than 0.5 µM.

In the case of `O=C(c1ccc(-c2nccc3ccccc23)cc1)N1CCN(C(=O)C2(O)CC2)CC1` [1-[(4-{[4-(isoquinolin-1-yl)phenyl]carbonyl}piperazin-1-yl)carbonyl]cyclopropan-1-ol], the IC50 against FASN enzyme is less than 500 nM; in the assay on PC3 cells (setting [1]), less than 0.5 µM.

Consider `O=C(c1ccc(-c2ccc3cnccc3c2)cc1)N1CCN(C(=O)C2(O)CCC2)CC1` [1-[(4-{[4-(isoquinolin-6-yl)phenyl]carbonyl}piperazin-1-yl)carbonyl]cyclobutan-1-ol], for which the concentration for half-maximal inhibition (IC50) against FASN enzyme was less than 500 nM; in the assay on PC3 cells (setting [1]), less than 0.5 µM.

With `O=C(c1ccc(-c2ccc3cnccc3c2)cc1)N1CCN(C(=O)C2(O)CC2)CC1` [1-[(4-{[4-(isoquinolin-6-yl)phenyl]carbonyl}piperazin-1-yl)carbonyl]cyclopropan-1-ol], the IC50 against FASN enzyme is less than 500 nM; with PC3 cells (setting [1]), less than 0.5 µM.

For the compound `O=C(c1ccc(-c2ccc3ccccc3n2)cc1)N1CCN(C(=O)C2(O)CC2)CC1` [1-[(4-{[4-(quinolin-2-yl)phenyl]carbonyl}piperazin-1-yl)carbonyl]cyclopropan-1-ol], the half-inhibitory concentration (IC50) was less than 500 nM against FASN enzyme and less than 0.5 µM in the assay with PC3 cells (setting [1]).

Consider `O=C(c1ccc(-c2cnc3ccccc3c2)cc1)N1CCN(C(=O)C2(O)CCC2)CC1` [1-[(4-{[4-(quinolin-3-yl)phenyl]carbonyl}piperazin-1-yl)carbonyl]cyclobutan-1-ol], for which the IC50 against FASN enzyme is less than 500 nM; in the assay on PC3 cells (setting [1]), less than 0.5 µM.

`O=C(c1ccc(-c2cccc3ncccc23)cc1)N1CCN(C(=O)C2(O)CC2)CC1` [1-[(4-{[4-(quinolin-5-yl)phenyl]carbonyl}piperazin-1-yl)carbonyl]cyclopropan-1-ol]: the concentration for half-maximal inhibition (IC50) against FASN enzyme is less than 500 nM; with PC3 cells (setting [1]), less than 0.5 µM.

With `Cn1ccc2cc(-c3ccc(C(=O)N4CCN(C(=O)C5(O)CC5)CC4)nc3)ccc21` [1-[(4-{[5-(1-methyl-1H-indol-5-yl)pyridin-2-yl]carbonyl}piperazin-1-yl)carbonyl]cyclopropan-1-ol], the IC50 was less than 500 nM against FASN enzyme and less than 0.5 µM with PC3 cells (setting [1]).

With `CC(C)n1ccc2cc(-c3ccc(C(=O)N4CCN(C(=O)C5(O)CC5)CC4)cc3Cl)ccc21` [1-{[4-({3-chloro-4-[1-(propan-2-yl)-1H-indol-5-yl]phenyl}carbonyl)piperazin-1-yl]carbonyl}cyclopropan-1-ol], the 50% inhibitory concentration (IC50) was less than 500 nM on FASN enzyme and no less than 0.5 µM with PC3 cells (setting [2]).

With `O=C(c1ccc(-c2ccc3c(ccn3C(F)(F)F)c2)c(Cl)c1)N1CCN(C(=O)C2(O)CC2)CC1` [1-{[4-({3-chloro-4-[1-(trifluoromethyl)-1H-indol-5-yl]phenyl}carbonyl)piperazin-1-yl]carbonyl}cyclopropan-1-ol], the IC50 was less than 500 nM against FASN enzyme and less than 0.5 µM in the assay with PC3 cells (setting [1]).

With `O=C(c1ccc(-c2ccc3c(ccn3C(F)(F)F)c2)cc1)N1CCN(C(=O)C2(O)CC2)CC1` [1-{[4-({4-[1-(trifluoromethyl)-1H-indol-5-yl]phenyl}carbonyl)piperazin-1-yl]carbonyl}cyclopropan-1-ol], the IC50 against FASN enzyme (FASN enzymatic assay, Table 2-2) is 500 to 5000 nM; in the assay on PC3 cells (setting [1]) it was less than 0.5 µM.

With `N#Cc1ccc2nc(-c3ccc(C(=O)N4CCN(C(=O)C5(O)CC5)CC4)cc3)oc2c1` [2-[4-({4-[(1-hydroxycyclopropyl)carbonyl]piperazin-1-yl}carbonyl)phenyl]-1,3-benzoxazole-6-carbonitrile], the IC50 is less than 500 nM at FASN enzyme and less than 0.5 µM with PC3 cells (setting [1]).

For the compound `O=C(c1ccc(-c2cc3ccccc3nc2O)cc1F)N1CCN(C(=O)C2(O)CC2)CC1` [3-[3-fluoro-4-({4-[(1-hydroxycyclopropyl)carbonyl]piperazin-1-yl}carbonyl)phenyl]quinolin-2-ol], the values for the half-inhibitory concentration (IC50) at FASN enzyme and in the assay with PC3 cells (setting [1]) were less than 500 nM and less than 0.5 µM, respectively.

As for `O=C(c1ccc(-c2cc3ccccc3[nH]c2=O)cc1)N1CCN(C(=O)C2(O)CC2)CC1` [3-[4-({4-[(1-hydroxycyclopropyl)carbonyl]piperazin-1-yl}carbonyl)phenyl]-1,2-dihydroquinolin-2-one], the half-inhibitory concentration (IC50) at FASN enzyme is less than 500 nM; in the assay with PC3 cells (setting [1]), less than 0.5 µM.

On to `O=C(c1ccc(-c2cnc3ccccc3c2)cc1)N1CCN(C(=O)C2CCO2)CC1` (stereo not drawn) [3-[4-({4-[(oxetan-2-yl)carbonyl]piperazin-1-yl}carbonyl)phenyl]quinoline], for which the values for the half-inhibitory concentration (IC50) against FASN enzyme and in the assay with PC3 cells (setting [2]) were less than 500 nM and no less than 0.5 µM, respectively.

On to `N#Cc1cc2cc(-c3ccc(C(=O)N4CCN(C(=O)C5(O)CC5)CC4)cc3)ccc2[nH]1` [5-[4-({4-[(1-hydroxycyclopropyl)carbonyl]piperazin-1-yl}carbonyl)phenyl]-1H-indole-2-carbonitrile], for which the IC50 on FASN enzyme was less than 500 nM; in the assay with PC3 cells (setting [1]), less than 0.5 µM.

The IC50 is the concentration that inhibits the measured activity by half.

Values taken from US10457655B2, “Compounds and compositions for inhibition of FASN” (FORMA Therapeutics, Inc., priority 2013, dated 2019).
